# Paper PMC5057115, “Cathelicidins in the Tasmanian devil (Sarcophilus harrisii)” (Scientific Reports, 2016)
# Where no end group is shown, it is not given here.
# Tested on: human red blood cells
# Type: cell-based
# Conditions: red cells of human, 24 h
# Method: Tissue expression of devil cathelicidin prepropeptides was determined by real-time PCR on a range of secretory, immune, reproductive, gastrointestinal and respiratory tissues, as well as BLAST searches of the milk transcriptome. Opportunistic tissue samples for real-time PCR were collected from Taronga Zoo (Sydney) from devils which were subject to euthanasia due to old age and advanced disease. […] Ltd. and their antimicrobial activity against bacterial and fungal pathogens determined by broth microdilution susceptibility assay according to clinical laboratory standards institute guidelines. Antimicrobial activity was expressed as minimum inhibitory concentration (MIC). Cytotoxicity was assessed in the human cell line A549 and haemolytic activity determined against human blood. Statistical significance of peptide effect on cell survival in comparison to the untreated control was calculated using a one sample t-test. Pouch microbiome analysis was performed on swabs from the pouch of lactating and non-lactating devils to detect changes in microbe populations. Pouch swab collection was carried out in accordance with the Save the Tasmanian Devil Program and was approved by the Animal Ethics Committee of the University of Sydney (permit number 681). page 3: […] Two antibiotics, ampicillin and tetracycline, were included as a positive control for bacteria, and the […] A well containing cells and media only was used as a “no drug” control to ensure that cultures grew normally. Bacteria were subcultured on Mueller Hinton agar (MHA) or Sheep blood agar (BA) for 24 hours at 35 °C for Staphylococcus spp., Pseudomonas spp., Enterococcus spp. and E.coli, with 5% CO2 for Streptococcus spp., K.pneumoniae, P.multocida, […] Similarly, fungi were subcultured on Sabouraud agar (SAB) at 35 °C for 24 hours prior to the test. Colonies were resuspended in saline and the OD530 measured with a McFarland reader. If necessary the suspension was diluted to 0.45-0.55 McFarland units with saline. […] Assays Antimicrobial activity was expressed as minimum inhibitory concentration (MIC), which was defined as the lowest concentration of cathelicidin preventing visible growth, relative to the negative control. Colonies which grew on agar plates were also counted. Cytotoxicity Cytotoxicity was assessed in the human A549 cell line maintained in Dulbecco’s Modification of Eagle’s Medium (DMEM) supplemented with 10% foetal bovine serum (FBS), 2mM L -glutamine, 50units/mL penicillin and 50μg/mL streptomycin. […] Following incubation for a further 24 hours, cell viability was determined using alamar blue (Invitrogen) which was added to each well. […]
sequence,measurement,value
KRMGIFHLFWAGLRKLGNLIKNKIQQGIENFLG [Saha-CATH3],haemolysis compared with the positive control,below 7%
